The source of these data is PubChem BioAssay AID1996.

≈ marks a conversion by molar mass, not a printed value.

The conditions of this data set: buffer; pH 7.4; 200.0 µM.
`O=C(NCC(c1ccco1)N1CCCCC1)c1cnc(Cl)c(Cl)c1` (centres undefined) returned a solubility (kinetic) of over 55.2 µg/mL.

The compound `O=C(/C=C/c1cccc(C(F)(F)F)c1)OCC(=O)N1CCN(c2ccccc2)CC1` displayed a kinetic solubility of 3.7 µg/mL (≈ 8.84 µM). For `COc1ccc(C(=O)N[C@H](C(=O)Nc2sccc2C(N)=O)C(C)C)cc1`, the kinetic solubility is over 56.3 µg/mL. With `CNCCc1c[nH]c2ccc(O)cc12.O=C(O)C(=O)O`, the solubility (kinetic) was over 42 µg/mL. In the case of `COc1cc(C(=O)NCC(=O)Nc2c(C)cccc2C)ccc1OCC(=O)N1CCOCC1`, the kinetic solubility is over 68.3 µg/mL. `O=C(Nc1ccc2c(c1)CCC2)c1cc(F)cc(F)c1` came in with a solubility (kinetic) of 3.7 µg/mL (≈ 13.5 µM). Consider `CC(=O)C1=C(c2ccccc2)NC(=O)NC1c1cccs1` (centres undefined), for which the kinetic solubility turned out to be 28.2 µg/mL (≈ 94.5 µM). In turn, `CCCC/C(=N/O)c1c(C)[nH]c2ccccc12` gave a kinetic solubility of 30.7 µg/mL (≈ 133 µM). For `CC1CC(C)CN(C(=O)COc2ccc([N+](=O)[O-])cc2Cl)C1` (centres undefined), the kinetic solubility was 11 µg/mL (≈ 33.7 µM). `CCN1CCN(CCC(=O)Nc2cc(OC)cc(OC)c2)CC1` displayed a solubility (kinetic) of 35.2 µg/mL (≈ 110 µM). `CCN1CCN(c2oc(/C=C/c3ccccc3)nc2C#N)CC1` displayed a solubility (kinetic) of 42.4 µg/mL (≈ 137 µM). For `COc1ccccc1-n1c(O)c(/C=C2\C=Nc3ccccc32)c(=O)[nH]c1=O`, the solubility (kinetic) came out at 4.4 µg/mL (≈ 12.2 µM).

In turn, `O=S(=O)(NCCc1ccccn1)c1ccc(-c2ccccn2)s1` showed a kinetic solubility of 30.6 µg/mL (≈ 88.6 µM). In turn, `CNc1snc(C)c1C(=O)OCC(=O)c1ccc(Cl)cc1` returned a kinetic solubility of 2.6 µg/mL (≈ 8.01 µM).

Compound `Cc1ccccc1NC(=O)c1cc[n+]([O-])cc1` registered a kinetic solubility of over 34.2 µg/mL. In the case of `O=C(c1cc2ccccc2s1)N1CCN(c2ccccn2)CC1`, the kinetic solubility turned out to be 8.9 µg/mL (≈ 27.5 µM).

The compound `COc1ccc(N(Cc2cc3cc(C)ccc3[nH]c2=O)C(C)=O)cc1` showed a solubility (kinetic) of 47 µg/mL (≈ 140 µM). As to `O=C(/C=C/c1ccccc1)Nc1sc2c(c1C(=O)O)CCC2`, the solubility (kinetic) was over 47 µg/mL. For the compound `O=C(CSc1nc2ccccc2c(=O)n1Cc1ccc(F)cc1)NCC1CCCO1` (centres undefined), the solubility (kinetic) turned out to be 4.1 µg/mL (≈ 9.59 µM). The compound `CCOC(=O)Cn1ccc(NC(=O)c2ccc(F)cc2)n1` registered a solubility (kinetic) of over 43.7 µg/mL.

`COc1ccc(N2C(=O)/C(=C/c3ccco3)C(=O)NC2=S)cc1`: the solubility (kinetic) worked out at 48.8 µg/mL (≈ 149 µM). `O=C(NCc1ccccn1)C1CC(c2ccccc2Cl)=NO1` (centres undefined) displayed a solubility (kinetic) of over 47.4 µg/mL. The value for `CCCc1nc2sc3c(c2c(=O)[nH]1)CCCC3` was 1.3 µg/mL (≈ 5.23 µM); that for `NC(=O)c1coc(-c2ccccc2)n1` was over 28.2 µg/mL; that for `CCN1CCN(Cc2cccnc2)CC1` was 20.2 µg/mL (≈ 98.4 µM). In turn, `CC(=O)c1ccccc1NC(=O)COC(=O)c1cc(C)oc1C` displayed a solubility (kinetic) of 2.2 µg/mL (≈ 6.98 µM). Regarding `Cc1ccc(C)c(C(=O)NC(C)CCc2ccccc2)c1` (centres undefined), the kinetic solubility amounted to 0.7 µg/mL (≈ 2.49 µM). `O=C(NC1CCSc2ccccc21)c1ccc([N+](=O)[O-])cc1` (centres undefined) yielded a solubility (kinetic) of 3.5 µg/mL (≈ 11.1 µM). `COc1ccc(C(C#N)c2nc3ccccc3nc2Cl)cc1` (centres undefined) yielded a kinetic solubility of under 0.2 µg/mL. In the case of `Cc1c(C)n(Cc2ccccc2)c2ncnc(NCCO)c12`, the kinetic solubility was found to be 41.2 µg/mL (≈ 139 µM). The value for `NC(=O)c1c(/N=C/c2cccnc2)sc2c1CCCC2` was 22 µg/mL (≈ 77.1 µM).

On to `Cc1ccc(C(=O)Nc2cccc3ccccc23)cc1`, for which the solubility (kinetic) was determined as 0.8 µg/mL (≈ 3.06 µM). With `Cc1ccc(NC(=O)CN2C(=O)CNC2=O)cc1`, the solubility (kinetic) is over 37.1 µg/mL. In turn, `Cc1c(C(=O)N(C)C(C)c2ccncn2)oc2c(F)cccc12` (centres undefined) registered a kinetic solubility of over 47 µg/mL. For `CC(C)CCNc1nc(N)c([N+](=O)[O-])c(NCCO)n1`, the kinetic solubility amounted to 42.3 µg/mL (≈ 149 µM). Under `CC(=O)Nc1ccc(OS(=O)(=O)c2ccccc2C)cc1` stands 35.2 µg/mL (≈ 115 µM); under `CCOc1ccccc1N1CCN(C(=O)NC2CCCCC2)CC1`, over 49.7 µg/mL. `O=C(CCc1ccccc1)NC1CCCc2ccccc21` (centres undefined) came in with a solubility (kinetic) of 19.2 µg/mL (≈ 68.7 µM). On to `C=CCSc1nc(C)c(CCC(C)C)c(=O)[nH]1`, for which the kinetic solubility turned out to be 9.2 µg/mL (≈ 36.5 µM). In turn, `Cc1ccc(C(C)NC(=O)c2cc3ccccc3oc2=O)cc1C` (centres undefined) gave a kinetic solubility of 0.8 µg/mL (≈ 2.49 µM).

For `Cc1cc(C)c(S(=O)(=O)N2CCN(C(=O)N(C)C)CC2)c(C)c1`, the solubility (kinetic) was over 50.9 µg/mL.

With `Cc1nc(NCc2cccnc2)c2c3c(sc2n1)CC(C)CC3` (centres undefined), the solubility (kinetic) is 2.5 µg/mL (≈ 7.71 µM). `COCc1cc(=O)[nH]c(N2CCN(C(=O)c3ccco3)CC2)n1` displayed a kinetic solubility of over 47.7 µg/mL. The value for `O=C1C(=O)N(CCCc2ccccc2)c2ccccc21` was 32.5 µg/mL (≈ 122 µM); that for `Cc1ccc(F)c(NC(=O)c2c(-c3ccccc3)noc2C)c1` was 2.2 µg/mL (≈ 7.09 µM). The value for `Cc1cc(C)c(S(=O)(=O)c2ccc(Cl)cc2)c(=O)[nH]1` was 19.8 µg/mL (≈ 66.5 µM); that for `C=CCNC(=O)CC1Nc2c3ccccc3nc(=S)n2C1=O` (centres undefined) was over 47.2 µg/mL. Under `CCC(=Nc1ccccc1)C1=C(O)CCCC1=O` stands 19.9 µg/mL (≈ 81.8 µM). Take `Cc1cccc(C)c1C(=NCCN(C)C)c1ccccc1.Cl`: the solubility (kinetic) is over 53 µg/mL. The compound `CCOC(=O)c1c(NC(C)=O)sc(C(=O)NC2CCCC2)c1C` yielded a kinetic solubility of 1 µg/mL (≈ 2.95 µM). With `CCC1(Cc2ccccc2)NC(=O)c2ccccc2O1` (centres undefined), the kinetic solubility came out at 36.5 µg/mL (≈ 137 µM).

The compound `Cc1ccc(NC(=S)NCCC2=CCCCC2)cc1` registered a kinetic solubility of 0.6 µg/mL (≈ 2.19 µM).

`C/C=C/c1ccc(OCC(=O)NCc2ccccc2OC)c(OC)c1` came in with a kinetic solubility of 2.9 µg/mL (≈ 8.49 µM). The value for `CC(C)c1nc(Cl)c(C#N)c2c1COC(C)(C)C2` was 6.6 µg/mL (≈ 24.9 µM); that for `COc1cc(OC)c(C(=O)O/N=C(\N)c2ccccn2)cc1OC` was over 49.7 µg/mL; that for `O=C1COc2ccc(S(=O)(=O)N3CCCCC3)cc2N1` was 43.3 µg/mL (≈ 146 µM).

`CCOC(=O)c1sc(=NC(=O)COc2ccccc2)n(C)c1C` registered a kinetic solubility of 1.4 µg/mL (≈ 4.19 µM). As to `O=c1oc2cc(Br)ccc2n1Cc1ccccc1`, the kinetic solubility was under 0.7 µg/mL. For `O=C(COC(=O)c1ccco1)Nc1ccc(Cl)cn1`, the kinetic solubility is 24.8 µg/mL (≈ 88.4 µM). `CCOC(=O)c1cc2c(=O)[nH]ccc2nc1C(F)(F)F` came in with a kinetic solubility of over 42.9 µg/mL. As to `CC(=O)N/C(=C/c1ccc2c(c1)OCO2)C(=O)N1CCOCC1`, the kinetic solubility is 45 µg/mL (≈ 141 µM). `O=C(Cc1ccc([N+](=O)[O-])cc1)Nc1ccc2c(c1)CCC2`: the kinetic solubility was determined as 0.6 µg/mL (≈ 2.02 µM).

Regarding `COc1ccc(NC(=O)CCCn2cnc3ccccc3c2=O)cc1`, the kinetic solubility was over 50.6 µg/mL. In turn, `Cn1c(Nc2ccccc2)cc(=O)n(C)c1=O` came in with a kinetic solubility of over 34.7 µg/mL. With `O=C(CCS(=O)(=O)c1ccccc1)NCc1ccccc1`, the solubility (kinetic) was over 45.5 µg/mL. On to `CCN(CC(=O)NCc1cccs1)C(=O)c1cc(Br)ccc1O`, for which the kinetic solubility is over 59.6 µg/mL.

In turn, `Cc1ccc(CONC(=O)c2ccccc2)cc1` gave a solubility (kinetic) of over 36.2 µg/mL. `N#C/C(=C\c1cccnc1)C(=O)Nc1ccc(C(=O)O)cc1` came in with a kinetic solubility of over 44 µg/mL. With `Cc1ccc(N2CC(O)=C(c3ccccc3)C2=N)cc1`, the kinetic solubility was over 39.6 µg/mL. As for `Cc1cccc(NC(=O)c2ccc3c(c2)C(=O)N(c2ccccn2)C3=O)c1C`, the solubility (kinetic) came out at 2.2 µg/mL (≈ 5.92 µM). Take `O=C(COc1ccc(Cl)cc1)NCc1ccccc1`: the solubility (kinetic) turned out to be 25.6 µg/mL (≈ 92.8 µM).

Compound `CC1CC2(CCCC2)Nc2ccc(F)cc21.Cl` (centres undefined) yielded a kinetic solubility of 0.7 µg/mL. Turning to `O=C(COC(=O)c1ccc[n+]([O-])c1)Nc1ccc([N+](=O)[O-])cc1Cl`, the kinetic solubility is over 52.8 µg/mL.

Consider `CSc1ccccc1NC(=O)Cn1c([N+](=O)[O-])cnc1C`, for which the kinetic solubility was found to be 41.5 µg/mL (≈ 135 µM).
